According to patent US4371463A, “Enzyme-resistant opiate pentapeptides” (priority 1977, dated 1983):
Square brackets hold non-standard residues; d marks the D form. Ends that are not written are not given here. Peptide text beside a SMILES is read from it.

Columns and labels:
rats = test: Analgesia after intracerebral microinjection in rats (tail-flick, flinch-jump, limb pinch); type: in vivo, rat
Method: Sprague-Dawley rats were stereotaxically implanted with chronic indwelling cannulae guides constructed from 23 gauge TW stainless steel tubing and fitted with stilettes of corresponding length. […] Testing was initiated approximately one week following surgery. The compounds being assessed for analgesic activity were dissolved in pyrogen-free water and microinjected at various dose levels in a volume 1 μl through 30 gauge injectors which protruded 2 mm past the guide cannulae tips.
Analgesia was assessed by the D'Amour and Smith "tail-flick" procedure, the "flinch-jump" test, and by subjectively evaluating an animal's reaction to pinches of the limbs with forceps. In the "tail-flick" test, a high intensity light was focused on a rat's tail which had been blackened with a felt-tip pen, and the time that it took an animal to remove its tail from this radiant heat was measured to the nearest 0.5 second. In the "flinch-jump" test, AC shock intensity at which an animal jumped and squealed was quantified 15 minutes after an injection (immediately after testing in the tail-flick test). Reactions to limb pinches were also noted at this time. Baseline measures were always taken approximately one hour prior to injection. All animals were tested at 1, 5, 15, 30, 60, 120, and 180 minutes after injection and then at one hour intervals until their response latencies had recovered to baseline levels.

opiate receptors = test: Opiate receptor affinity by inhibition of stereospecific 3H-naloxone binding to rat brain membranes; settings: for IC50: rat brain membranes, 1 h at 0° C., 100 mM NaCl, 1.3 nM 3H-naloxone, read-out: Opiate Receptor Affinity (concentration causing 50% inhibition of stereospecific 3H-naloxone binding); for opiate receptor affinity, fold greater than the corresponding L-Ala2 isomer: vs L-Ala2-Met-enkephalin-amide
Method: Male rats weighing 180-200 g (Sprague-Dawley) were decapitated and each brain with the cerebellum removed was homogenized in 150 mls of ice-cold standard buffer (0.05 M Tris-HCl, pH 7.0 at 25° C.). After refrigerated centrifugation at 12,000×g, the membranes were reconstituted in the standard buffer. After recentrifugation, each brain was suspended in 10 mls of the standard buffer. Aliquots of the freshly prepared membrane preparation (100 μl) were incubated for one hour at 0° C. with various concentrations of the pentapeptide and 100 mM NaCl in a final volume of 0.5 ml with ^3 H-naloxane (New England Nuclear, 34 Ci/mmole) in a concentration of 1.3 nM (20,000 cpm). Incubation was begun with the addition of brain membranes, which were added last. After rapid filtration and washing with two 7 ml portions of ice-cold standard buffer, membrane-laden filters were transferred and counted at 40-45% efficiency at least six hours after shaking with detergent scintillation fluor (Aquasol, New England Nuclear). Control incubations containing levallorphan (100 nM) or dextrallorphan (100 nM) were included. Stereospecific binding (^3 H-naloxone bound in the presence of levallorphan subtracted from binding in the presence of dextrallorphan) represented 85-90% of the total bound naloxane in all experiments. Control values in all experiments ranged between 2000-2800 cpm. From a plot of the percent inhibition of stereospecific ^3 H-naloxane binding as a function of pentapeptide concentration, the opiate receptor affinity of the pentapeptide was determined as that concentration of pentapeptide, in μM, causing 50% inhibition of stereospecific ^3 H-naloxone binding. In this test, the lower the numerical value obtained, the higher is the opiate receptor affinity of the pentapeptide.

[1] = Preincubation with rat brain membranes under physiological conditions at 37° C., then residual opiate receptor inhibitory activity; type: in vitro ADME
[2] = test system: rat brain opiate receptors; settings: cited from earlier work
rat = settings: cited from earlier work; for duration of analgesia: injected directly into active brain sites
[3] = 5-10 μg microinjected into rat brain

## CSCC[C@H](NC(=O)[C@H](Cc1ccccc1)NC(=O)CNC(=O)[C@@H](C)NC(=O)[C@@H](N)Cc1ccc(O)cc1)C(N)=O [D-Ala^2 -Met-enkephalin-amide]
rats; 10 μg microinjected, 1 and 2 hours after injection
  intensity of analgesia compared with 5 μg of morphine: not as intense
rats; 10 μg microinjected, rat
  persistence of analgesia compared with 5 μg of morphine: about the same length of time
rats; [3]
  analgesic effects compared with comparable dose levels of morphine: almost as potent and long-lasting
  duration of action (analgesia): several hours
rats; 5-10 μg microinjected, periaqueductal gray, rat
  analgesia elicited: quite effective in eliciting analgesia
rats; 5-10 μg microinjected, rat
  persistence of analgesia after injection: three
rats; naloxone 2 mg/kg i.p. 15 minutes before 10 μg microinjection
  effect of naloxone preinjection on analgesia: almost complete reversal of analgesia
Opiate receptors
  IC50: 400 nM
  opiate receptor affinity, fold greater than the corresponding L-Ala2 isomer: 10 fold

## CSCC[C@H](NC(=O)[C@H](Cc1ccccc1)NC(=O)CNC(=O)[C@@H](C)NC(=O)[C@@H](N)Cc1ccc(O)cc1)C(=O)O [D-Ala^2 -Met-enkephalin]
rats; [3]
  duration of action (analgesia): several hours
rats; microinjected, rat
  analgesia results compared with D-Ala2-Met-enkephalin-amide: quite similar
rats; rat, in vivo
  analgesic effects compared with comparable dose levels of morphine: almost as potent and long-lasting
Opiate receptors
  IC50: 400 nM
  opiate receptor affinity, fold greater than the corresponding L-Ala2 isomer: 10 fold

## CSCC[C@H](NC(=O)[C@H](Cc1ccccc1)NC(=O)CNC(=O)[C@@H](Cc1ccccc1)NC(=O)[C@@H](N)Cc1ccc(O)cc1)C(N)=O [D-Phe^2 -Met-enkephalin-amide] (H-Y[dF]GFM-NH2)
Opiate receptors
  IC50: 2000 nM

## CSCC[C@H](NC(=O)[C@H](Cc1ccccc1)NC(=O)CNC(=O)[C@H](NC(=O)[C@@H](N)Cc1ccc(O)cc1)C(C)C)C(N)=O [D-Val^2 -Met-enkephalin-amide] (H-Y[dV]GFM-NH2)
rats; microinjected, rat
  dose level needed to produce the same analgesic response as 5 μg of D-Ala2-Met-enkephalin-amide: 20 µg
Opiate receptors
  IC50: 4000 nM

## CSCC[C@H](NC(=O)[C@H](Cc1ccccc1)NC(=O)CNC(=O)[C@H](C)NC(=O)[C@@H](N)Cc1ccc(O)cc1)C(N)=O [L-Ala^2 -Met-enkephalin-amide, reference compound]
rats; 10 μg microinjected, rat
  analgesia elicited: failed to elicit any significant analgesia
[1]
  preincubation time after which complete loss of opiate receptor inhibitory activity resulted: 60 min
Opiate receptors
  IC50: 4000 nM

## CC(C)C[C@H](NC(=O)[C@H](Cc1ccccc1)NC(=O)CNC(=O)CNC(=O)[C@@H](N)Cc1ccc(O)cc1)C(=O)O [Leu-enkephalin, H-L-Tyr-Gly-Gly-L-Phe-L-Leu-OH, reference compound]
Opiate receptors
  IC50: 700 nM

## CSCC[C@H](NC(=O)[C@H](Cc1ccccc1)NC(=O)CNC(=O)CNC(=O)[C@@H](N)Cc1ccc(O)cc1)C(=O)O [Met-enkephalin, H-L-Tyr-Gly-Gly-L-Phe-L-Met-OH]
rats; 120 μg microinjected, rat
  analgesia elicited: relatively low level of analgesia
  time after injection by which analgesia returned to pre-drug level: ≤ 5 min
[2]
  affinity for rat brain opiate receptors relative to morphine: about half
[1]
  preincubation time after which complete loss of opiate receptor inhibitory activity resulted: 20 min
Opiate receptors
  IC50: 200 nM
rat
  duration of analgesia: several minutes
rat; rat, in vivo
  analgesic potency, fold weaker than morphine: at least 50 fold

## CSCC[C@H](NC(=O)[C@H](Cc1ccccc1)NC(=O)CNC(=O)CN(C)C(=O)[C@@H](N)Cc1ccc(O)cc1)C(N)=O [Sar^2 -Met-enkephalin-amide]
Opiate receptors
  IC50: 8000 nM

## CN1CC[C@]23c4c5ccc(O)c4O[C@H]2[C@@H](O)C=C[C@H]3[C@H]1C5 [morphine]
rat
  duration of analgesia: several hours

## YPGFM-NH2 [L-Pro^2 -Met-enkephalin-amide]
Opiate receptors
  IC50: 90000 nM
